# Measurements from publication PMC3436892, “Novel African Trypanocidal Agents: Membrane Rigidifying Peptides” (PLoS ONE, 2012).
# Assays:
# [1] = system: BSF T. b. brucei VSG; assay: FRAP of surface VSG; format: cell-based, strain 427; settings: 8 µM peptide, 10 min at 37°C, cells immobilized in gelatin, line FRAP at 20°C (Fig. 2c)
# Description: Bloodstream form T. b. brucei, strain 427, expressing VSG MITat1.6 were cultivated in HMI 9 media with 10% fetal calf serum. 1×10^7 cells were washed three times with ice cold trypanosome dilution buffer (TDB; 5 mM KCl, 80 mM NaCl, 1 mM MgSO4, 20 mM Na2HPO4, 2 mM NaH2PO4, 20 mM glucose, pH 7.6). The cell density was adjusted to 1×10^8 cells/mL and labeling of surface proteins was achieved by incubation with 1 µM sulfo-NHS coupled Atto 488 fluorescent dye (ATTO-TEC GmbH, Siegen) for 15 min on ice. After incubation the cells were washed three times with ice cold TDB to remove unbound dye. Labeled T. b. brucei cells were incubated with 8 µM SHP-1 for 10 min at 37°C. The fluorescently labeled cells were mixed 1∶3 with 10% Type-A gelatin from porcine skin (Sigma-Aldrich, Steinheim) in PBS, pH 7.8, at 37°C. 4 µL of the cell gelatin mixture was applied into a cover slide sandwich and mounted into a temperature controlled sample holder. The sample holder was cooled to 20°C until the cells were immobilized. Samples of SHP-1 treated and untreated MITat 1.6 wt cells were prepared identically. […] 10 pre-bleach and 100 post-bleach images were recorded at 2fps. VSG mobile fractions were determined according to Phair et al. (2004) using double normalization. The mobile fraction refers to the percentage of mobile VSG molecules within the measured region. […]
# [2] = system: interfacial region of the plasma membrane of BSF T. b. brucei; assay: TMA-DPH fluorescence anisotropy (interfacial membrane rigidity); format: cell-based, Trypanosoma brucei brucei; settings: live BSF cells 3×10^6 cells/mL in PBS, 0.5 µM TMA-DPH, 37°C, increasing SHP concentrations, triplicate (Fig. 2b)
# Description: The plasma membrane rigidity of live T. b. brucei was determined by measuring the fluorescence depolarization of diphenyl-1,3,5- hexatriene p-toluenesulfonate (DPH) or 1-(4-trimethylammoniumphenyl)-6-diphenyl-1,3,5- hexatriene p-toluenesulfonate (TMA-DPH; Invitrogen T204). Cells were washed 3 times with and resuspended in phosphate buffered saline at a density of 3×10^6 cells/mL. The anisotropic probes were added to a final concentration of 0.5 µM and allowed to intercalate into the cell membrane for 1 h in the dark. Anisotropic values were acquired via the software function of a PerkinElmer Life Sciences LS55 spectrofluorometer. Samples were excited at 358 nm, and emission was read at 430 nm, with 10-nm excitation and emission slit widths. Temperature was maintained at 37°C by means of the PerkinElmer LS55 Biokinetics accessory. Data were corrected for light scattering with an unlabeled sample of cells, and anisotropy was calculated according to the equation r = (IVV - GIVH)/(IVV + 2GIVH), where r is the anisotropy value, IVV is the emission intensity acquired with the excitation- and emission-polarizing filters set vertically, G is the instrument correction factor, and IVH is the emission intensity acquired with the excitation-polarizing filter set vertically and the emission-polarizing filter set horizontally. […]
sequence,measurement,setting,value
"SDLGAVISLLLWGRQLFA [SHP-1, trypanocidal small hydrophobic peptide derived from an apolipoprotein, with characteristics of a secretory signal peptide]",fraction of laterally mobile surface exposed VSG,[1],decreases
same,interfacial rigidity of the plasma membrane (TMA-DPH fluorescence depolarization),[2],increased the interfacial rigidity
